Active and inactive are the calls of the source. The calls are words filed in the database; no cut-off is given here.
Key:
[1] = Toxicity in male ICR mouse assessed as survival rate at 100 mg/kg, po administered as single dose for 14 days; format: organism-based; conditions: in vivo, time 14 day
[2] = Elimination rate constant in rat at 2 mg/kg, iv measured after 24 hrs by HPLC-UV method; format: ADME, organism-based; conditions: in vivo, read-out: Ke (converted)
[3] = Tmax in rat at 20 mg/kg, po measured after 24 hrs by HPLC-UV method; format: ADME, organism-based; conditions: in vivo
[4] = Tmax in rat at 10 mg/kg, po measured after 24 hrs by HPLC-UV method; format: ADME, organism-based; conditions: in vivo
[5] = C0 in rat plasma at 2 mg/kg, iv measured after 24 hrs by HPLC-UV method; format: ADME, organism-based
[6] = AUClast in rat at 2 mg/kg, iv measured after 24 hrs by HPLC-UV method; format: ADME, organism-based; set-up: time 24 hrs, dose 2 mg/kg, route iv; conditions: in vivo
[7] = Toxicity in male ICR mouse assessed as survival rate at 100 mg/kg, iv administered as single dose for 14 days; format: organism-based; conditions: in vivo, time 14 day
[8] = Toxicity in male ICR mouse assessed as survival rate at 10 mg/kg, iv administered as single dose for 14 days; format: organism-based; conditions: in vivo, time 14 day
[9] = Toxicity in female ICR mouse assessed as survival rate at 300 mg/kg, po administered as single dose for 14 days; format: organism-based; conditions: in vivo, time 14 day
[10] = Toxicity in female ICR mouse assessed as survival rate at 100 mg/kg, po administered as single dose for 14 days; format: organism-based; conditions: in vivo, time 14 day
Mus musculus [11] = assay: Antineuroinflammatory activity against MPTP induced parkinson's disease in C57BL/6 mouse model assessed as […] tyrosine hydroxylase positive dopaminergic neuron in substantia nigra at 10 mg/kg, po administered for 8 days by immunohistochemistry analysis; format: functional, organism-based; conditions: time 8.0 day
[12] = Dose normalized clearance in rat at 10 mg/kg, po measured after 24 hrs by HPLC-UV method; format: ADME, organism-based; conditions: in vivo, read-out: Dose normalized clearance (converted)
[13] = Toxicity in male ICR mouse assessed as survival rate at 30 mg/kg, iv administered as single dose for 14 days; format: organism-based; conditions: in vivo, time 14 day
[14] = Apparent volume of distribution in rat at 10 mg/kg, po measured after 24 hrs by HPLC-UV method; format: ADME, organism-based; conditions: in vivo
[15] = Toxicity in female ICR mouse assessed as survival rate at 100 mg/kg, iv administered as single dose for 14 days; format: organism-based; conditions: in vivo, time 14 day
[16] = Permeability coefficient of the compound across blood brain barrier at pH 7.4 incubated for 4 hrs by PAMPA assay; format: ADME; conditions: read-out: permeability
BV-2 [17] = assay: Antiinflammatory activity in mouse BV-2 cells assessed as suppression of LPS-stimulated TNFalpha production at 10 uM measured after 24 hrs by qPCR analysis; format: functional, cell-based
[18] = Apparent volume of distribution in rat at 20 mg/kg, po measured after 24 hrs by HPLC-UV method; format: ADME, organism-based; conditions: in vivo
[19] = Toxicity in female ICR mouse assessed as survival rate at 10 mg/kg, iv administered as single dose for 14 days; format: organism-based; conditions: in vivo, time 14 day
[20] = Cmax in rat plasma at 10 mg/kg, po measured after 24 hrs by HPLC-UV method; format: ADME, organism-based; set-up: time 24 hrs, dose 10 mg/kg, route po
[21] = Oral bioavailability in rat at 20 mg/kg measured after 24 hrs by HPLC-UV method; format: ADME, organism-based; conditions: in vivo
[22] = AUClast in rat at 10 mg/kg, po measured after 24 hrs by HPLC-UV method; format: ADME, organism-based; set-up: dose 10 mg/kg, time 24 hrs, route po; conditions: in vivo
[23] = Elimination half life in rat at 20 mg/kg, po measured after 24 hrs by HPLC-UV method; format: ADME, organism-based; conditions: in vivo, read-out: beta t1/2 (converted)
[24] = Toxicity in male ICR mouse assessed as survival rate at 1000 mg/kg, po administered as single dose for 14 days; format: organism-based; conditions: in vivo, time 14 day
BV-2 [25] = assay: Inhibition of cell migration in LPS-induced mouse BV-2 cells at 10 uM incubated for 24 hrs by crystal violet staining based transwell assay; format: functional
[26] = Toxicity in female ICR mouse assessed as survival rate at 1000 mg/kg, po administered as single dose for 14 days; format: organism-based; conditions: in vivo, time 14 day
[27] = Toxicity in female ICR mouse assessed as survival rate at 30 mg/kg, iv administered as single dose for 14 days; format: organism-based; conditions: in vivo, time 14 day
[28] = Elimination half life in rat at 10 mg/kg, po measured after 24 hrs by HPLC-UV method; format: ADME, organism-based; conditions: in vivo, read-out: beta t1/2 (converted)
[29] = Toxicity in male ICR mouse assessed as survival rate at 300 mg/kg, iv administered as single dose for 14 days; format: organism-based; conditions: in vivo, time 14 day
Mus musculus [30] = assay: Antineuroinflammatory activity against MPTP induced parkinson's disease in C57BL/6 mouse model assessed as decrease in IbA1+ microglial cells in substantia nigra at 10 mg/kg, po administered for 8 days by immunohistochemistry analysis; format: functional, organism-based; conditions: time 8.0 day
BV-2 [31] = assay: Inhibition of LPS-induced ROS production in mouse BV-2 cells preincubated for 30 mins followed by LPS addition and measured at 10 sec interval for 15 mins by lucigenin based chemiluminescence assay; format: functional, cell-based; conditions: dose 1-10000 nM, time 45.0 min
[32] = Toxicity in female ICR mouse assessed as survival rate at 300 mg/kg, iv administered as single dose for 14 days; format: organism-based; conditions: in vivo, time 14 day
[33] = Dose normalized clearance in rat at 20 mg/kg, po measured after 24 hrs by HPLC-UV method; format: ADME, organism-based; conditions: in vivo
[34] = Elimination rate constant in rat at 10 mg/kg, po measured after 24 hrs by HPLC-UV method; format: ADME, organism-based; conditions: in vivo, read-out: Ke (converted)
BV-2 [35] = assay: Antiinflammatory activity in mouse BV-2 cells assessed as suppression of LPS-stimulated iNOS production at 10 uM measured after 24 hrs by qPCR analysis; format: functional, cell-based
[36] = Toxicity in male ICR mouse assessed as survival rate at 300 mg/kg, po administered as single dose for 14 days; format: organism-based; conditions: in vivo, time 14 day
Mus musculus [37] = assay: Antineuroinflammatory activity against MPTP induced parkinson's disease in C57BL/6 mouse model assessed as […] tyrosine hydroxylase positive dopaminergic neuron in striatum at 10 mg/kg, po administered for 8 days by immunohistochemistry analysis; format: functional, organism-based; conditions: time 8.0 day
BV-2 [38] = assay: Antiinflammatory activity in mouse BV-2 cells assessed as suppression of LPS-stimulated IL1beta production at 10 uM measured after 24 hrs by qPCR analysis; format: functional, cell-based
[39] = Elimination rate constant in rat at 20 mg/kg, po measured after 24 hrs by HPLC-UV method; format: ADME, organism-based; conditions: in vivo, read-out: Ke (converted)
Mus musculus [40] = assay: Antineuroinflammatory activity against MPTP induced parkinson's disease in C57BL/6 mouse model assessed as decrease in IbA1+ microglial cells in striatum at 10 mg/kg, po administered for 8 days by immunohistochemistry analysis; format: functional, organism-based; conditions: time 8.0 day
[41] = Cmax in rat plasma at 20 mg/kg, po measured after 24 hrs by HPLC-UV method; format: ADME, organism-based; set-up: time 24 hrs, dose 20 mg/kg, route po
[42] = Elimination half life in rat at 2 mg/kg, iv measured after 24 hrs by HPLC-UV method; format: ADME, organism-based; conditions: in vivo, read-out: beta t1/2 (converted)
[43] = Metabolic stability in human liver microsomes assessed as parent compound remaining preincubated for 5 mins followed by NADPH addition and measured after 30 mins by LC-MS/MS analysis; format: ADME, Microsome; conditions: read-out: Stability
[44] = Volume of distribution in rat at 2 mg/kg, iv measured after 24 hrs by HPLC-UV method; format: ADME, organism-based; conditions: in vivo
[45] = AUClast in rat at 20 mg/kg, po measured after 24 hrs by HPLC-UV method; format: ADME, organism-based; set-up: dose 20 mg/kg, time 24 hrs, route po; conditions: in vivo
[46] = Oral bioavailability in rat at 10 mg/kg measured after 24 hrs by HPLC-UV method; format: ADME, organism-based; conditions: in vivo
[47] = Clearance in rat at 2 mg/kg, iv measured after 24 hrs by HPLC-UV method; format: ADME, organism-based; conditions: in vivo

## CN1C(=S)N(C2CCCCC2)C(=O)/C1=C\c1ccc(N(C)CCO)cc1
[1]
  survival at 336 h: 100%
[2]
  k el at 24 h: 0.000367 s⁻¹
[3]
  Tmax: 40.2 min
[4]
  Tmax: 4.98 min
[5]
  C0 at 24 h: 1700 ng/mL
[6]
  AUC(0-t) at 24 h: 468 ng·h/mL
[7]
  survival at 336 h: 100%
[8]
  survival at 336 h: 100%
[9]
  survival at 336 h: 100%
[10]
  survival at 336 h: 100%
Mus musculus [11]
  Activity: Active
[12]
  CL/F: 5.68 mL/min
[13]
  survival at 336 h: 100%
[14]
  Vd/F: 1.99 L
[15]
  survival at 336 h: 100%
[16]
  Papp at 4 h: 13.6 ×10⁻⁶ cm/s
BV-2 [17]
  Activity: Active
[18]
  Vd/F: 1.82 L
[19]
  survival at 336 h: 100%
[20]
  Cmax: 609 ng/mL
[21]
  bioavailability: 88.9%
[22]
  AUC(0-t) at 24 h: 1310 ng·h/mL
[23]
  half-life: 368 min
[24]
  survival at 336 h: 100%
BV-2 [25]
  inhibition: Active
[26]
  survival at 336 h: 100%
[27]
  survival at 336 h: 100%
[28]
  half-life: 301 min
[29]
  survival at 336 h: 100%
Mus musculus [30]
  Activity: Active
BV-2 [31]
  inhibition: Dose-Dependent Effect
[32]
  survival at 336 h: 100%
[33]
  Dose normalized clearance: 0.217 L/h
[34]
  k el at 24 h: 4.72e-05 s⁻¹
BV-2 [35]
  Activity: Active
[36]
  survival at 336 h: 100%
Mus musculus [37]
  Activity: Active
BV-2 [38]
  Activity: Active
[39]
  k el at 24 h: 4.42e-05 s⁻¹
Mus musculus [40]
  Activity: Active
[41]
  Cmax: 783 ng/mL
[42]
  half-life: 47.4 min
[43]
  remaining at 0.5 h: 76.3%
[44]
  Vd: 0.211 L
[45]
  AUC(0-t) at 24 h: 4160 ng·h/mL
[46]
  bioavailability: 56%
[47]
  clearance: 3.62 mL/min
